Assay results: ChEMBL document CHEMBL5252582, “Glyclauxins A-E: Dimeric Oxaphenalenone Aminoglycosides from an Australian Wasp Nest-Derived Fungus Talaromyces sp. CMB-MW102” (J Nat Prod, 2023)
pIC50: −log10 of the molar value.

Legend:
[1] = system: SW-620; assay: Cytotoxicity against human SW620 cells assessed as cell growth inhibition incubated for 48 hrs by MTT assay; type: functional, cell-based; details: SW-620, 48 h
[2] = system: Candida albicans; assay: Antifungal activity against Candida albicans ATCC10231 assessed as fungal growth inhibition incubated for 24 hrs by spectrophotometric analysis; type: functional, organism-based; details: ATCC10231, 24 h
[3] = system: Staphylococcus aureus; assay: Antibacterial activity against gram positive Staphylococcus aureus ATCC25923 assessed as bacterial growth inhibition incubated for 24 hrs by spectrophotometric analysis; type: functional, organism-based; details: ATCC25923, 24 h
[4] = system: NCI-H460; assay: Cytotoxicity against human NCI-H460 cells assessed as cell growth inhibition incubated for 48 hrs by MTT assay; type: functional, cell-based; details: NCI-H460, 48 h
[5] = system: Escherichia coli; assay: Antibacterial activity against gram negative Escherichia coli ATCC11775 assessed as bacterial growth inhibition incubated for 24 hrs by spectrophotometric analysis; type: functional, organism-based; details: ATCC11775, 24 h

Measured: pIC50

CO[C@@]12c3c(C)cc(O)c4c(=O)n([C@H]5CO[C@H](CO)[C@@H](O)[C@@H]5O)cc(c34)C(=O)[C@@H]1[C@]13COC(=O)c4c(O)cc(C)c(c41)C(=O)[C@H]2[C@@H]3OC(C)=O
< 4.52: all assays above

CO[C@@]12c3c(C)cc(O)c4c(=O)occ(c34)C(=O)[C@@H]1[C@]13COC(=O)c4c(O)cc(C)c(c41)C(=O)C2[C@@H]3OC(C)=O
< 4.52: all assays above

CC(=O)O[C@H]1[C@@H]2C(=O)c3c(C)cc(O)c4c3[C@@]1(COC4=O)C1=C2c2c(C)cc(O)c3c(=O)n([C@H]4CO[C@H](CO)[C@@H](O)[C@@H]4O)cc(c23)C1=O
< 4.52: all assays above

CO[C@@]12c3c(C)cc(O)c4c(=O)n([C@H]5CO[C@H](CO)[C@@H](O)[C@@H]5O)cc(c34)C(=O)[C@@H]1[C@]13COC(=O)c4c(O)cc(C)c(c41)C(=O)[C@H]2[C@@H]3O
< 4.52: all assays above

CC(=O)OC[C@H]1OC[C@H](n2cc3c4c(c(C)cc(O)c4c2=O)C2=C(C3=O)[C@]34COC(=O)c5c(O)cc(C)c(c53)C(=O)[C@H]2[C@@H]4OC(C)=O)[C@@H](O)[C@@H]1O
< 4.52: all assays above

Cc1cc(O)c2c3c1C(=O)[C@@H]1C4=C(C(=O)c5cn([C@H]6CO[C@H](CO)[C@@H](O)[C@@H]6O)c(=O)c6c(O)cc(C)c4c56)[C@@]3(COC2=O)[C@H]1O
< 4.52: all assays above
